Test: xn = mol fraction of the nth substance listed
Settings: 100 kPa, x2 = 0

CCCC[n+]1ccn(C)c1.F[B-](F)(F)F + N[C@@H](Cc1c[nH]cn1)C(=O)O + O
viscosity [mPa·s]
Settings	293.15 K	298.15 K	303.15 K	308.15 K	313.15 K	318.15 K
x1 = 0.0003603	1.03	0.917	0.835	0.751	0.693	0.638
x1 = 0.0007203	1.062	0.951	0.868	0.789	0.736	0.681
x1 = 0.00108	1.093	0.983	0.904	0.83	0.779	0.725

— the CheMixHub ionic liquid set
